In patent US9833497B2, “Human originated EGF domain proteins and use of the same” (CHENGDU SOURCEBIO LIMITED-LIABILITY COMPANY, priority 2013, dated 2017):

What was measured:
Assay type in all cases: cell-based
[1] = test system: E. coli DH5α; assay: Antibacterial activity: MIC and growth curve against E. coli DH5α in 96-well plate; details: minimal inhibitory concentration against E. coli DH5α; 96-well plate, 5×10^5 CFU/mL, 37° C., judged after 8 h
Outline: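 MIC taken as lowest protein level with no bacterial growth, tracked by A600 every 30 min during 37 °C, 175 rpm culture. Two-fold protein series 50-12.5 μg/mL final, triplicate wells, against 5×10^5 CFU/mL of LB-washed mid-log cells.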

[2] = test system: E. coli BL21; assay: MIC against Gram-negative bacteria: E. coli BL21; details: for MIC (μg/mL) E. coli BL21 / MIC against E. coli BL21: 96-well plate, 37° C., 10 h
Outline: (§1)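 Antibacterial activity of purified human EGF domain proteins: two-fold concentration series, triplicate wells, LB broth, 5×10^5 CFU/mL bacteria, 37° C shaking incubation. The lowest concentration without growth defines the MIC.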

[3] = test system: Pseudomonas aeruginosa; assay: MIC against Gram-negative bacteria: Pseudomonas aeruginosa; details: for MIC (μg/mL) P. aeruginosa / MIC against P. aeruginosa: 96-well plate, 37° C., 10 h
Outline: as §1

[4] = test system: Klebsiella pneumonia; assay: MIC against Gram-negative bacteria: Klebsiella pneumonia; details: for MIC (μg/mL) K. pneumonia / MIC against K. pneumonia: 96-well plate, 37° C., 10 h
Outline: as §1

[5] = test system: Enterobacter cloacae; assay: MIC against Gram-negative bacteria: Enterobacter cloacae; details: for MIC (μg/mL) E. cloacae / MIC against E. cloacae: 96-well plate, 37° C., 10 h
Outline: as §1

[6] = test system: Aeromonas hydrophila; assay: MIC against Gram-negative bacteria: Aeromonas hydrophila; details: for MIC (μg/mL) A. hydrophila / MIC against A. hydrophila: 96-well plate, 37° C., 10 h
Outline: as §1

[7] = test system: Citrobacter diversus; assay: MIC against Gram-negative bacteria: Citrobacter diversus; details: for MIC (μg/mL) C. diversus / MIC against C. diversus: 96-well plate, 37° C., 10 h
Outline: as §1

[8] = test system: Moraxella catarrhalis; assay: MIC against Gram-negative bacteria: Moraxella catarrhalis; details: for MIC (μg/mL) M. catarrhalis / MIC against M. catarrhalis: 96-well plate, 37° C., 10 h
Outline: as §1

[9] = test system: Proteus mirabilis; assay: MIC against Gram-negative bacteria: Proteus mirabilis; details: for MIC (μg/mL) P. mirabilis / MIC against P. mirabilis: 96-well plate, 37° C., 10 h
Outline: as §1

[10] = test system: Proteus vulgaris; assay: MIC against Gram-negative bacteria: Proteus vulgaris; details: for MIC (μg/mL) P. vulgaris / MIC against P. vulgaris: 96-well plate, 37° C., 10 h
Outline: as §1

[11] = test system: Serratia marcescens; assay: MIC against Gram-negative bacteria: Serratia marcescens; details: for MIC (μg/mL) S. marcescens / MIC against S. marcescens: 96-well plate, 37° C., 10 h
Outline: as §1

[12] = Pseudomonas aeruginosa, 5×10^5 CFU/mL
[13] = Klebsiella pneumonia, 5×10^5 CFU/mL
[14] = Enterobacter cloacae, 5×10^5 CFU/mL
[15] = Aeromonas hydrophila, 5×10^5 CFU/mL
[16] = Citrobacter diversus, 5×10^5 CFU/mL
[17] = Moraxella catarrhalis, 5×10^5 CFU/mL
[18] = Proteus mirabilis, 5×10^5 CFU/mL
[19] = Proteus vulgaris, 5×10^5 CFU/mL
[20] = Serratia marcescens, 5×10^5 CFU/mL
[21] = 10 h cultivation at 37° C., 5×10^5 CFU/mL, two-fold serial dilution

Substance: PRT14 (PPKPCDSQPCFHGGTCQDWALGGGFTCSCPAGRGGAVCE; listed as Homo sapiens)
- MIC [1]: 25 µg/mL
- MIC (μg/mL) E. coli BL21 ([2]; E. coli BL21, 5×10^5 CFU/mL): 50 µg/mL
- MIC (μg/mL) P. aeruginosa [3, 12]: 25 µg/mL
- MIC (μg/mL) K. pneumonia [4, 13]: 12.5 µg/mL
- MIC (μg/mL) E. cloacae [5, 14]: 25 µg/mL
- MIC (μg/mL) A. hydrophila [6, 15]: 50 µg/mL
- MIC (μg/mL) C. diversus [7, 16]: 25 µg/mL
- MIC (μg/mL) M. catarrhalis [8, 17]: 12.5 µg/mL
- MIC (μg/mL) P. mirabilis [9, 18]: 25 µg/mL
- MIC (μg/mL) P. vulgaris [10, 19]: 50 µg/mL
- MIC (μg/mL) S. marcescens [11, 20]: 12.5 µg/mL

Substance: PRT1204 (DIDECGTGRHSCANDTICFNLDGGYDCRCPHGKNCT; listed as Homo sapiens)
- MIC [1]: 100 µg/mL
- MIC against E. coli BL21 ([2]; E. coli BL21, 5×10^5 CFU/mL): 25 µg/mL
- MIC against P. aeruginosa [3, 12]: 50 µg/mL
- MIC against K. pneumonia [4, 13]: 25 µg/mL
- MIC against E. cloacae [5, 14]: 12.5 µg/mL
- MIC against A. hydrophila [6, 15]: 50 µg/mL
- MIC against C. diversus [7, 16]: 25 µg/mL
- MIC against M. catarrhalis [8, 17]: 25 µg/mL
- MIC against P. mirabilis [9, 18]: 12.5 µg/mL
- MIC against P. vulgaris [10, 19]: 50 µg/mL
- MIC against S. marcescens [11, 20]: 25 µg/mL

Substance: PRT1037 (DCSRPCPPGRQKSPRDPCQCVCHGSAVTTQDCC; listed as Homo sapiens)
- MIC [1]: 12.5 µg/mL
- MIC ([2]; E. coli BL21, 10 h cultivation at 37° C.): 50 µg/mL
- MIC ([3]; P. aeruginosa, 10 h cultivation at 37° C.): 50 µg/mL
- MIC ([4]; K. pneumonia, 10 h cultivation at 37° C.): 12.5 µg/mL
- MIC ([5]; E. cloacae, 10 h cultivation at 37° C.): 25 µg/mL
- MIC ([6]; A. hydrophila, 10 h cultivation at 37° C.): 25 µg/mL
- MIC ([7]; C. diversus, 10 h cultivation at 37° C.): 50 µg/mL
- MIC ([8]; M. catarrhalis, 10 h cultivation at 37° C.): 25 µg/mL
- MIC ([9]; P. mirabilis, 10 h cultivation at 37° C.): 12.5 µg/mL
- MIC ([10]; P. vulgaris, 10 h cultivation at 37° C.): 50 µg/mL
- MIC ([11]; S. marcescens, 10 h cultivation at 37° C.): 50 µg/mL

Substance: PRT1317 (APNPCWPSPCSLLAQCSVSPKGQAQCHCPENYHGDGMVCL; listed as Homo sapiens)
- MIC [1]: 50 µg/mL
- MIC against E. coli BL21 ([2]; E. coli BL21, 5×10^5 CFU/mL): 12.5 µg/mL
- MIC against P. aeruginosa [3, 12]: 50 µg/mL
- MIC against K. pneumonia [4, 13]: 25 µg/mL
- MIC against E. cloacae [5, 14]: 12.5 µg/mL
- MIC against A. hydrophila [6, 15]: 25 µg/mL
- MIC against C. diversus [7, 16]: 50 µg/mL
- MIC against M. catarrhalis [8, 17]: 25 µg/mL
- MIC against P. mirabilis [9, 18]: 12.5 µg/mL
- MIC against P. vulgaris [10, 19]: 50 µg/mL
- MIC against S. marcescens [11, 20]: 12.5 µg/mL

Substance: PRT1146 (SIDNCAEPELNSVICLNGGICVDGPGHTFDCRCLPGFSGQFCE; listed as Homo sapiens)
- MIC [1]: 50 µg/mL
- MIC E. coli BL21 [2, 21]: 25 µg/mL
- MIC P. aeruginosa [3, 21]: 12.5 µg/mL
- MIC K. pneumonia [4, 21]: 25 µg/mL
- MIC E. cloacae [5, 21]: 50 µg/mL
- MIC A. hydrophila [6, 21]: 12.5 µg/mL
- MIC C. diversus [7, 21]: 25 µg/mL
- MIC M. catarrhalis [8, 21]: 50 µg/mL
- MIC P. mirabilis [9, 21]: 12.5 µg/mL
- MIC P. vulgaris [10, 21]: 50 µg/mL
- MIC S. marcescens [11, 21]: 12.5 µg/mL

Substance: PRT138 (PCHNNATCEDSVDNYTCHCWPGYTGAQCE; listed as Homo sapiens)
- MIC [1]: 12.5 µg/mL
- MIC (μg/mL) E. coli BL21 ([2]; E. coli BL21, 5×10^5 CFU/mL): 50 µg/mL
- MIC (μg/mL) P. aeruginosa [3, 12]: 12.5 µg/mL
- MIC (μg/mL) K. pneumonia [4, 13]: 25 µg/mL
- MIC (μg/mL) E. cloacae [5, 14]: 50 µg/mL
- MIC (μg/mL) A. hydrophila [6, 15]: 25 µg/mL
- MIC (μg/mL) C. diversus [7, 16]: 12.5 µg/mL
- MIC (μg/mL) M. catarrhalis [8, 17]: 100 µg/mL
- MIC (μg/mL) P. mirabilis [9, 18]: 12.5 µg/mL
- MIC (μg/mL) P. vulgaris [10, 19]: 12.5 µg/mL
- MIC (μg/mL) S. marcescens [11, 20]: 25 µg/mL

Substance: PRT533 (GTINSNLGYCQCKLHVEGPTCSRCKLLYWNLDKENPSGCSE; listed as Homo sapiens)
- MIC [1]: 50 µg/mL
- MIC against E. coli BL21 ([2]; 5×10^5 CFU/mL): 25 µg/mL
- MIC against P. aeruginosa ([3]; 5×10^5 CFU/mL): 100 µg/mL
- MIC against K. pneumonia ([4]; 5×10^5 CFU/mL): 25 µg/mL
- MIC against E. cloacae ([5]; 5×10^5 CFU/mL): 50 µg/mL
- MIC against A. hydrophila ([6]; 5×10^5 CFU/mL): 25 µg/mL
- MIC against C. diversus ([7]; 5×10^5 CFU/mL): 12.5 µg/mL
- MIC against M. catarrhalis ([8]; 5×10^5 CFU/mL): 25 µg/mL
- MIC against P. mirabilis ([9]; 5×10^5 CFU/mL): 50 µg/mL
- MIC against P. vulgaris ([10]; 5×10^5 CFU/mL): 25 µg/mL
- MIC against S. marcescens ([11]; 5×10^5 CFU/mL): 12.5 µg/mL
